Assay results from publication PMC12100716 (2025).

Legend:
Assay in all cases: PELDOR (EPR) distance distributions
[1] = tested on: C12C30 (RNA, aptamer, Çm (rigid nitroxide spin-label cytidine analogue) at 12 and 30) GGACGACUGAACCGAAAGGUUCUUGGCUGCUUCGGCAGAGGUACGUCC; conditions: 130 mM glutamate buffer, pH 7.5; frozen solution; qualitative
[2] = tested on: C12C47 (RNA, aptamer, Çm (rigid nitroxide spin-label cytidine analogue) at 12 and 47) GGACGACUGAACCGAAAGGUUCUUGGCUGCUUCGGCAGAGGUACGUCC; conditions: 130 mM glutamate buffer, pH 7.5; frozen solution; qualitative
[3] = tested on: C30C47 (RNA, aptamer, Çm (rigid nitroxide spin-label cytidine analogue) at 30 and 47) GGACGACUGAACCGAAAGGUUCUUGGCUGCUUCGGCAGAGGUACGUCC; conditions: 130 mM glutamate buffer, pH 7.5; frozen solution; qualitative; small fraction of free aptamer remains

Measured: binding

CN(C)c1ccc2c(-c3ccc(C(=O)O)cc3C(=O)[O-])c3ccc(=[N+](C)C)cc-3oc2c1
yes: all assays above
